Measured values as given in US20240043404A1 (AbbVie Inc., priority 2009, published 2024).
pEC50: −log10 of the molar value.

Tested on: RS4;11 cells
Experiment: RS4;11 cell viability assay (CellTiter Glo);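 also: acute lymphoblastic leukemia line RS4,11, EC50 derived from percentage of viable cells after treatment relative to untreated controls, cell killing taken as a measure of Bcl-2 inhibition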
Type: cell-based, human
Details: Homo sapiens, RS4-11, 48 h, 50,000 cells per well, 10% human serum, 48 hours; read-out: RS4; 11 EC50 Values
Experimental: The acute lymphoblastic leukemia (ALL) cell line RS4;11 was used as the primary human cell line to assess the cellular activity of Bcl-2 selective agents in vitro and their efficacy in vivo.
Cell cytotoxicity EC50 values were assessed using CellTiter Glo (Promega) according to the manufacturer's recommendations. The EC50 values were determined as a percentage of viable cells following treatment compared to the untreated control cells.

Row | pEC50 | Compound
1 | 6.74 | CC1(C)CCC(CN2CCN(c3ccc(C(=O)NS(=O)(=O)c4cnc(N[C@H]5CC[C@H](N6CCOCC6)CC5)c(C#N)c4)c(Oc4cnc5[nH]ccc5c4)c3)CC2)=C(c2ccc(Cl)cc2)C1 [Example 109, Trans-4-(4-{[2-(4-chlorophenyl)-4,4-dimethylcyclohex-1-en-1-yl]methyl}piperazin-1-yl)-N-({5-cyano-6-[(4-morpholin-4-ylcyclohexyl)amino]pyridin-3-yl}sulfonyl)-2-(1H-pyrrolo[2,3-b]pyridin-5-yloxy)benzamide]
2 | 6.27 | CC1(C)CCC(CN2CCN(c3ccc(C(=O)NS(=O)(=O)c4ccc(NCC5CCOCC5)c(C#N)c4)c(Oc4cnc5[nH]ccc5c4)c3)CC2)=C(c2ccc(Cl)cc2)C1 [Example 110, 4-(4-{[2-(4-chlorophenyl)-4,4-dimethylcyclohex-1-en-1-yl]methyl}piperazin-1-yl)-N-({3-cyano-4-[(tetrahydro-2H-pyran-4-ylmethyl)amino]phenyl}sulfonyl)-2-(1H-pyrrolo[2,3-b]pyridin-5-yloxy)benzamide]
3 | 7.84 | CC1(C)CCC(CN2CCN(c3ccc(C(=O)NS(=O)(=O)c4ccc(N[C@H]5CC[C@@H](N6CCOCC6)C5)c([N+](=O)[O-])c4)c(Oc4cnc5[nH]ccc5c4)c3)CC2)=C(c2ccc(Cl)cc2)C1 [Example 111, 4-(4-{[2-(4-chlorophenyl)-4,4-dimethylcyclohex-1-en-1-yl]methyl}piperazin-1-yl)-N-[(4-{[(1S,3R)-3-morpholin-4-ylcyclopentyl]amino)-3-nitrophenyl)sulfonyl]-2-(1H-pyrrolo[2,3-b]pyridin-5-yloxy)benzamide]
4 | 7.69 | CC1(C)CCC(CN2CCN(c3ccc(C(=O)NS(=O)(=O)c4ccc(N[C@@H]5CC[C@H](N6CCOCC6)C5)c([N+](=O)[O-])c4)c(Oc4cnc5[nH]ccc5c4)c3)CC2)=C(c2ccc(Cl)cc2)C1 [Example 112, 4-(4-{[2-(4-chlorophenyl)-4,4-dimethylcyclohex-1-en-1-yl]methyl}piperazin-1-yl)-N-[(4-{[(1R,3S)-3-morpholin-4-ylcyclopentyl]amino}-3-nitrophenyl)sulfonyl]-2-(1H-pyrrolo[2,3-b]pyridin-5-yloxy)benzamide]
5 | 8.87 | CC1(C)CCC(CN2CCN(c3ccc(C(=O)NS(=O)(=O)c4ccc(NCC5CNCCO5)c([N+](=O)[O-])c4)c(Oc4cnc5[nH]ccc5c4)c3)CC2)=C(c2ccc(Cl)cc2)C1 (stereo not drawn) [Example 113, 4-(4-{[2-(4-chlorophenyl)-4,4-dimethylcyclohex-1-en-1-yl]methyl}piperazin-1-yl)-N-({4-[(morpholin-2-ylmethyl)amino]-3-nitrophenyl}sulfonyl)-2-(1H-pyrrolo[2,3-b]pyridin-5-yloxy)benzamide]
6 | 7.97 | CC1(C)CCC(CN2CCN(c3ccc(C(=O)NS(=O)(=O)c4ccc(NCC5CCOC5)c([N+](=O)[O-])c4)c(Oc4cnc5[nH]ccc5c4)c3)CC2)=C(c2ccc(Cl)cc2)C1 (stereo not drawn) [Example 114, 4-(4-{[2-(4-chlorophenyl)-4,4-dimethylcyclohex-1-en-1-yl]methyl}piperazin-1-yl)-N-({3-nitro-4-[(tetrahydrofuran-3-ylmethyl)amino]phenyl}sulfonyl)-2-(1H-pyrrolo[2,3-b]pyridin-5-yloxy)benzamide]
7 | 7.54 | CC1(C)CCC(CN2CCN(c3ccc(C(=O)NS(=O)(=O)c4ccc(NC5CN(C6CCOCC6)C5)c([N+](=O)[O-])c4)c(Oc4cnc5[nH]ccc5c4)c3)CC2)=C(c2ccc(Cl)cc2)C1 [Example 116, 4-(4-{[2-(4-chlorophenyl)-4,4-dimethylcyclohex-1-en-1-yl]methyl}piperazin-1-yl)-N-({3-nitro-4-[(1-tetrahydro-2H-pyran-4-ylazetidin-3-yl)amino]phenyl}sulfonyl)-2-(1H-pyrrolo[2,3-b]pyridin-5-yloxy)benzamide]
8 | 7.74 | CC1(C)CCC(CN2CCN(c3ccc(C(=O)NS(=O)(=O)c4ccc(NC5CN(C6CCOC6)C5)c([N+](=O)[O-])c4)c(Oc4cnc5[nH]ccc5c4)c3)CC2)=C(c2ccc(Cl)cc2)C1 (stereo not drawn) [Example 117, 4-(4-{[2-(4-chlorophenyl)-4,4-dimethylcyclohex-1-en-1-yl]methyl}piperazin-1-yl)-N-({3-nitro-4-[(1-tetrahydrofuran-3-ylazetidin-3-yl)amino]phenyl}sulfonyl)-2-(1H-pyrrolo[2,3-b]pyridin-5-yloxy)benzamide]
9 | 7.89 | CC1(C)CCC(CN2CCN(c3ccc(C(=O)NS(=O)(=O)c4ccc(NC[C@H]5CCN(C6CCOCC6)C5)c([N+](=O)[O-])c4)c(Oc4cnc5[nH]ccc5c4)c3)CC2)=C(c2ccc(Cl)cc2)C1 [Example 118, 4-(4-{[2-(4-chlorophenyl)-4,4-dimethylcyclohex-1-en-1-yl]methyl}piperazin-1-yl)-N-{[3-nitro-4-({[(3R)-1-tetrahydro-2H-pyran-4-ylpyrrolidin-3-yl]methyl}amino)phenyl]sulfonyl}-2-(1H-pyrrolo[2,3-b]pyridin-5-yloxy)benzamide]
10 | 7.94 | CC1(C)CCC(c2ccc(Cl)cc2)=C(CN2CCN(c3ccc(C(=O)NS(=O)(=O)c4ccc(OCC5(F)CCOCC5)c([N+](=O)[O-])c4)c(Oc4cnc5[nH]ccc5c4)c3)CC2)C1 [Example 119, 4-(4-{[2-(4-chlorophenyl)-5,5-dimethylcyclohex-1-en-1-yl]methyl}piperazin-1-yl)-N-({4-[(4-fluorotetrahydro-2H-pyran-4-yl)methoxy]-3-nitrophenyl}sulfonyl)-2-(1H-pyrrolo[2,3-b]pyridin-5-yloxy)benzamide]
11 | 7.22 | CO[C@H]1CC[C@@H](COc2ccc(S(=O)(=O)NC(=O)c3ccc(N4CCN(CC5=C(c6ccc(Cl)cc6)CC(C)(C)CC5)CC4)cc3Oc3cnc4[nH]ccc4c3)cc2[N+](=O)[O-])CC1 [Example 121, 2-(1H-pyrrolo[2,3-b]pyridin-5-yloxy)-4-(4-((2-(4-chlorophenyl)-4,4-dimethylcyclohex-1-enyl)methyl)piperazin-1-yl)-N-(4-((cis-4-methoxycyclohexyl)methoxy)-3-nitrophenylsulfonyl)benzamide]
12 | 8.73 | CC1(C)CCC(CN2CCN(c3ccc(C(=O)NS(=O)(=O)c4ccc(N[C@H]5CC[C@@H](NC6CC6)CC5)c([N+](=O)[O-])c4)c(Oc4cnc5[nH]ccc5c4)c3)CC2)=C(c2ccc(Cl)cc2)C1 [Example 122, Cis-4-(4-{[2-(4-chlorophenyl)-4,4-dimethylcyclohex-1-en-1-yl]methyl}piperazin-1-yl)-N-[(4-{[4-(cyclopropylamino)cyclohexyl]amino}-3-nitrophenyl)sulfonyl]-2-(1H-pyrrolo[2,3-b]pyridin-5-yloxy)benzamide]
13 | 8.48 | CC1(C)CCC(CN2CCN(c3ccc(C(=O)NS(=O)(=O)c4ccc(N[C@H]5CC[C@H](NC6CCOCC6)CC5)c([N+](=O)[O-])c4)c(Oc4cnc5[nH]ccc5c4)c3)CC2)=C(c2ccc(Cl)cc2)C1 [Example 123, Trans-4-(4-{[2-(4-chlorophenyl)-4,4-dimethylcyclohex-1-en-1-yl]methyl}piperazin-1-yl)-N-[(3-nitro-4-{[4-(tetrahydro-2H-pyran-4-ylamino)cyclohexyl]amino}phenyl)sulfonyl]-2-(1H-pyrrolo[2,3-b]pyridin-5-yloxy)benzamide]
14 | 6.67 | CC1(C)CCC(CN2CCN(c3ccc(C(=O)NS(=O)(=O)c4cnc(O[C@H]5CC[C@H](N6CCOCC6)CC5)c(Br)c4)c(Oc4cnc5[nH]ccc5c4)c3)CC2)=C(c2ccc(Cl)cc2)C1 [Example 124, Trans-N-({5-bromo-6-[(4-morpholin-4-ylcyclohexyl)oxy]pyridin-3-yl}sulfonyl)-4-(4-{[2-(4-chlorophenyl)-4,4-dimethylcyclohex-1-en-1-yl]methyl}piperazin-1-yl)-2-(1H-pyrrolo[2,3-b]pyridin-5-yloxy)benzamide]
15 | 8.08 | CO[C@H]1CC[C@H](COc2ccc(S(=O)(=O)NC(=O)c3ccc(N4CCN(CC5=C(c6ccc(Cl)cc6)CC(C)(C)CC5)CC4)cc3Oc3cnc4[nH]ccc4c3)cc2[N+](=O)[O-])CC1 [Example 125, Trans-4-(4-{[2-(4-chlorophenyl)-4,4-dimethylcyclohex-1-en-1-yl]methyl}piperazin-1-yl)-N-({4-[(4-methoxycyclohexyl)methoxy]-3-nitrophenyl}sulfonyl)-2-(1H-pyrrolo[2,3-b]pyridin-5-yloxy)benzamide]
16 | 7.27 | CC1(C)CCC(CN2CCN(c3ccc(C(=O)NS(=O)(=O)c4ccc(OCC5(F)CCN(C(=O)OC(C)(C)C)CC5)c([N+](=O)[O-])c4)c(Oc4cnc5[nH]ccc5c4)c3)CC2)=C(c2ccc(Cl)cc2)C1 [Example 126, tert-butyl 4-{[4-({[4-(4-{[2-(4-chlorophenyl)-4,4-dimethylcyclohex-1-en-1-yl]methyl}piperazin-1-yl)-2-(1H-pyrrolo[2,3-b]pyridin-5-yloxy)benzoyl]amino}sulfonyl)-2-nitrophenoxy]methyl}-4-fluoropiperidine-1-carboxylate]
17 | 8.01 | CC1(C)CCC(CN2CCN(c3ccc(C(=O)NS(=O)(=O)c4ccc(OCC5(F)CCNCC5)c([N+](=O)[O-])c4)c(Oc4cnc5[nH]ccc5c4)c3)CC2)=C(c2ccc(Cl)cc2)C1 [Example 127, 4-(4-{[2-(4-chlorophenyl)-4,4-dimethylcyclohex-1-en-1-yl]methyl}piperazin-1-yl)-N-({4-[(4-fluoropiperidin-4-yl)methoxy]-3-nitrophenyl}sulfonyl)-2-(1H-pyrrolo[2,3-b]pyridin-5-yloxy)benzamide]
18 | 8.23 | CC1(C)CCC(CN2CCN(c3ccc(C(=O)NS(=O)(=O)c4ccc(N[C@H]5CC[C@H](N6CCN(C7CCOCC7)CC6)CC5)c([N+](=O)[O-])c4)c(Oc4cnc5[nH]ccc5c4)c3)CC2)=C(c2ccc(Cl)cc2)C1 [Example 128, Trans-4-(4-{[2-(4-chlorophenyl)-4,4-dimethylcyclohex-1-en-1-yl]methyl}piperazin-1-yl)-N-[(3-nitro-4-{[4-(4-tetrahydro-2H-pyran-4-ylpiperazin-1-yl)cyclohexyl]amino}phenyl)sulfonyl]-2-(1H-pyrrolo[2,3-b]pyridin-5-yloxy)benzamide]
